In doi:10.1101/717207v1 (bioRxiv, 2019):

Legend:
[1] = Peptide binding to heparin studied by ITC; conditions: heparin into peptide, PBS, one site model, average of two experiments
[2] = Peptide binding to POPG LUVs studied by ITC; conditions: POPG LUVs into peptide, PBS, one site model, once or twice
[3] = Perturbation of DMPG membrane organization probed by DSC; format: physicochemical; conditions: DMPG MLVs 1 mg/mL in PBS, peptide-to-lipid ratio 1/50, 1°C/min, 0-50°C
[4] = Peptide secondary structure by ATR-FTIR in the absence or presence of heparin; format: physicochemical; conditions: for Percentage of structural elements: β-strand: ATR-FTIR amide I deconvolution, 1627 cm^-1; for Percentage of structural elements: Random coil / Percentage of structural elements: α-Helix / Percentage of structural elements: Turn: ATR-FTIR; for Percentage of structural elements: Random coil: 1643 cm^-1; for Percentage of structural elements: α-Helix: 1659 cm^-1; for Percentage of structural elements: Turn: 1679 cm^-1
[5] = +Hep (8.3 µM heparin, peptide per ITC stoichiometry)

Sequence | TΔS [1] | ΔH [1] | TΔS [2] | ΔH [2] | effect on DMPG bilayer organization (phase transitions) [3] | Percentage of structural elements: β-strand ([4]; peptide alone, 100 µM in PBS) | Percentage of structural elements: Random coil [4, 5] | Percentage of structural elements: Random coil ([4]; peptide alone, 100 µM in PBS) | Percentage of structural elements: α-Helix [4, 5] | Percentage of structural elements: α-Helix ([4]; peptide alone, 100 µM in PBS) | Percentage of structural elements: Turn [4, 5] | Percentage of structural elements: Turn ([4]; peptide alone, 100 µM in PBS)
RRDWDWRRDWRR [Peptide R6DW3] | -80.5 kcal/mol | -91.1 kcal/mol | 6.2 kcal/mol | -0.74 kcal/mol | almost identical to that of aR6W3 | – | – | – | – | – | – | –
RRRRRRRRR [Peptide R9] | -60.5 kcal/mol | -71.7 kcal/mol | 7.4 kcal/mol | -0.60 kcal/mol | – | – | – | – | – | – | – | –
RRRRRRRRW [Peptide R8W1-2] | -82.0 kcal/mol | -92.3 kcal/mol | 6.7 kcal/mol | -0.79 kcal/mol | – | – | – | – | – | – | – | –
RRRRWRRRR [Peptide R8W1-1] | -71.5 kcal/mol | -81.7 kcal/mol | 6.2 kcal/mol | -0.72 kcal/mol | – | – | – | – | – | – | – | –
RRRWRRWRR [aR7W2] | -86.3 kcal/mol | -96.8 kcal/mol | 6.2 kcal/mol | -0.84 kcal/mol | – | 22% | 20% | 18% | 26% | 25% | 37% | 35%
RRWRRRRWW [nR6W3] | -113.0 kcal/mol | -123.3 kcal/mol | 6.5 kcal/mol | -1.27 kcal/mol | – | 21% | 24% | 23% | 27% | 25% | 22% | 31%
RRWWRRWRR [aR6W3] | -105.6 kcal/mol | -116.4 kcal/mol | 5.7 kcal/mol | -1.39 kcal/mol | – | 13% | 24% | 17% | 28% | 30% | 40% | 40%
RRWWRRWWR [aR5W4] | -165.9 kcal/mol | -176.6 kcal/mol | 5.0 kcal/mol | -2.53 kcal/mol | – | 11% | 20% | 24% | 30% | 29% | 30% | 36%
RWRWRRRRR [nR7W2] | -82.9 kcal/mol | -93.5 kcal/mol | 6.7 kcal/mol | -0.81 kcal/mol | – | – | – | – | – | – | – | –
RWWWWRRRR [nR5W4] | -169.0 kcal/mol | -179.3 kcal/mol | 5.7 kcal/mol | -2.10 kcal/mol | – | 17% | 22% | 22% | 26% | 26% | 32% | 35%
